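The compound was tested at five concentrations on cells cultured in 96-well plates, with a 48-hour exposure period. GI50 marks 50% less growth.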 Activity calls are given as the source filed them. Rule as the data show it: active = GI50 up to about 1.1 µM and inactive = higher.
Key:
Assay in all cases: NCI-60 cell line screen, 48 h
PC-3 = tested on: PC-3
SK-MEL-2 = tested on: SK-MEL-2
OVCAR-3 = tested on: OVCAR-3
LOX IMVI = tested on: LOX IMVI
SF-295 = tested on: SF-295
CCRF-CEM = tested on: CCRF-CEM
NCI/ADR-RES = tested on: NCI/ADR-RES
MDA-N = tested on: MDA-N
SF-268 = tested on: SF-268
HCT-116 = tested on: HCT-116
ACHN = tested on: ACHN
SR = tested on: SR
MCF7 = tested on: MCF7
T47D = tested on: T47D
OVCAR-4 = tested on: OVCAR-4
RXF 393 = tested on: RXF 393
UO-31 = tested on: UO-31
SW-620 = tested on: SW-620
KM12 = tested on: KM12

SMILES | GI50 (PC-3) | GI50 (SK-MEL-2) | GI50 (OVCAR-3) | GI50 (LOX IMVI) | GI50 (SF-295) | GI50 (CCRF-CEM) | GI50 (NCI/ADR-RES) | GI50 (MDA-N) | GI50 (SF-268) | GI50 (HCT-116) | GI50 (ACHN) | GI50 (SR) | GI50 (MCF7) | GI50 (T47D) | GI50 (OVCAR-4) | GI50 (RXF 393) | GI50 (UO-31) | GI50 (SW-620) | GI50 (KM12)
O=C(O)[C@H](CCC[C@H]1C(=O)O[C@H](c2ccccc2)[C@H](c2ccccc2)N1C(=O)OCc1ccccc1)N[C@@H](c1ccccc1)[C@H](O)c1ccccc1 | 37.1 µM (inactive) | 20 µM (inactive) | 23.7 µM (inactive) | 22.9 µM (inactive) | 28.2 µM (inactive) | 20 µM (inactive) | > 100 µM (inactive) | 21.7 µM (inactive) | 33.7 µM (inactive) | 20.8 µM (inactive) | > 100 µM (inactive) | 20.7 µM (inactive) | 28.3 µM (inactive) | 43.3 µM (inactive) | 32.2 µM (inactive) | 22.6 µM (inactive) | > 100 µM (inactive) | 25.1 µM (inactive) | 19.7 µM (inactive)
Cc1ccc2c(c1)[nH]c(=S)n2/C=C1\C(=O)Oc2ccccc2C1=O | 76.7 µM (inactive) | > 100 µM (inactive) | 24.4 µM (inactive) | 70 µM (inactive) | > 100 µM (inactive) | 34.8 µM (inactive) | 56.2 µM (inactive) | 90.6 µM (inactive) | 55.7 µM (inactive) | 44.9 µM (inactive) | 36 µM (inactive) | 71.6 µM (inactive) | > 100 µM (inactive) | 89.1 µM (inactive) | 64.1 µM (inactive) | 30.5 µM (inactive) | 30.2 µM (inactive) | 52.6 µM (inactive) | 84.5 µM (inactive)
Cc1c(C)c2c(c(N)c1C#N)C(=O)N(Nc1ccccc1)C2=O | 57.3 µM (inactive) | 96.8 µM (inactive) | 52.2 µM (inactive) | 3.51 µM (inactive) | 34.1 µM (inactive) | 97.1 µM (inactive) | 52.4 µM (inactive) | > 100 µM (inactive) | 40.8 µM (inactive) | > 100 µM (inactive) | 60.1 µM (inactive) | 66.1 µM (inactive) | 60.1 µM (inactive) | 9.95 µM (inactive) | 33.4 µM (inactive) | 20 µM (inactive) | 78.5 µM (inactive) | > 100 µM (inactive) | 36.1 µM (inactive)
Cc1ccc(NC(Nc2ccc(C)cc2C)=C(/C=C(\Cl)[N+](=O)[O-])[N+](=O)[O-])c(C)c1 | 7.03 µM (inactive) | 4.23 µM (inactive) | 2.72 µM (inactive) | 1.64 µM (inactive) | 16.6 µM (inactive) | 0.301 µM (active) | 17.1 µM (inactive) | 3.37 µM (inactive) | 4.82 µM (inactive) | 1.7 µM (inactive) | 2.97 µM (inactive) | 1.28 µM (inactive) | 2.83 µM (inactive) | 1.72 µM (inactive) | 3.69 µM (inactive) | 1.72 µM (inactive) | 5.9 µM (inactive) | 1.91 µM (inactive) | 10.4 µM (inactive)
COC(=O)c1ccc(NCC2=CC(=O)c3ccccc3C2=O)cc1 | 14.3 µM (inactive) | 18.9 µM (inactive) | 12.9 µM (inactive) | 8.18 µM (inactive) | 16.9 µM (inactive) | 2.04 µM (inactive) | 27.5 µM (inactive) | 9.23 µM (inactive) | 24.8 µM (inactive) | 17.8 µM (inactive) | 13.9 µM (inactive) | 14.6 µM (inactive) | 18.4 µM (inactive) | 12.2 µM (inactive) | 14.2 µM (inactive) | 22 µM (inactive) | 16.1 µM (inactive) | 22.2 µM (inactive) | 15.4 µM (inactive)
COc1ccc2c(c1)/c(=C/C#N)c1c3ccccc3[n+](C)n21 | 2.8 µM (inactive) | 14.5 µM (inactive) | 1.34 µM (inactive) | 5.97 µM (inactive) | 7.69 µM (inactive) | 2.04 µM (inactive) | 18.4 µM (inactive) | 5.43 µM (inactive) | 8.71 µM (inactive) | 3.13 µM (inactive) | 9.38 µM (inactive) | 6.34 µM (inactive) | 6.1 µM (inactive) | 2.51 µM (inactive) | 4.37 µM (inactive) | 10.9 µM (inactive) | 16.7 µM (inactive) | 4.13 µM (inactive) | 6.04 µM (inactive)
O=C(/C=C/c1ccc(O)c(O)c1)OCC(OC(=O)/C=C/c1ccc(O)c(O)c1)C(=O)O (stereo unspecified) | > 100 µM (inactive) | > 100 µM (inactive) | 55.2 µM (inactive) | 92.5 µM (inactive) | > 100 µM (inactive) | 48 µM (inactive) | > 100 µM (inactive) | > 100 µM (inactive) | > 100 µM (inactive) | 81.7 µM (inactive) | > 100 µM (inactive) | 21.3 µM (inactive) | > 100 µM (inactive) | > 100 µM (inactive) | 90.2 µM (inactive) | > 100 µM (inactive) | 85.7 µM (inactive) | 50.8 µM (inactive) | > 100 µM (inactive)
C1=N\c2ccc(cc2)-c2ccc(cc2)/N=C\c2ccccc2OCc2cccc(n2)COc2ccccc2/1 | > 100 µM (inactive) | 27.6 µM (inactive) | > 100 µM (inactive) | > 44.2 µM (inactive) | 18.5 µM (inactive) | > 100 µM (inactive) | > 100 µM (inactive) | > 100 µM (inactive) | 20.6 µM (inactive) | 24.4 µM (inactive) | 21.3 µM (inactive) | > 100 µM (inactive) | > 100 µM (inactive) | > 54 µM (inactive) | > 100 µM (inactive) | 15.2 µM (inactive) | > 60.7 µM (inactive) | > 100 µM (inactive) | > 100 µM (inactive)
CN(Cc1cnc2nc(N)nc(N)c2n1)c1ccc(C(=O)NC(CCC(=O)NC(P(=O)(O)O)P(=O)(O)O)C(=O)O)cc1 (stereo unspecified) | 5.62 µM (inactive) | 6.07 µM (inactive) | > 100 µM (inactive) | 8.32 µM (inactive) | 13.1 µM (inactive) | 41.1 µM (inactive) | 40.8 µM (inactive) | 16.2 µM (inactive) | 20.3 µM (inactive) | 4.49 µM (inactive) | 49.7 µM (inactive) | 9.06 µM (inactive) | 39.8 µM (inactive) | 26.3 µM (inactive) | > 100 µM (inactive) | 4.79 µM (inactive) | 78.2 µM (inactive) | 6.84 µM (inactive) | 8.34 µM (inactive)
COc1cc(C)c(C2NC(=O)c3ccccc3N2)cc1C (stereo unspecified) | 0.265 µM (active) | 0.297 µM (active) | 0.127 µM (active) | 0.451 µM (active) | 0.243 µM (active) | 0.352 µM (active) | 0.149 µM (active) | 0.0283 µM (active) | 0.518 µM (active) | 0.34 µM (active) | 0.47 µM (active) | 0.0364 µM (active) | 0.957 µM (active) | 0.447 µM (active) | 0.342 µM (active) | 0.358 µM (active) | 0.468 µM (active) | 0.303 µM (active) | 0.15 µM (active)
CC(C)(C)OCC1NC(=O)[C@@H]2Cc3c([nH]c4ccccc34)C(c3ccccc3)N2C1=O (stereo partly specified) | > 50 µM (inactive) | > 50 µM (inactive) | > 50 µM (inactive) | > 50 µM (inactive) | > 50 µM (inactive) | > 50 µM (inactive) | > 50 µM (inactive) | > 50 µM (inactive) | > 50 µM (inactive) | > 50 µM (inactive) | > 50 µM (inactive) | > 22.4 µM (inactive) | > 50 µM (inactive) | > 50 µM (inactive) | > 50 µM (inactive) | > 50 µM (inactive) | > 50 µM (inactive) | > 50 µM (inactive) | > 50 µM (inactive)
CC1(C)CC[C@]2(C(=O)O)[C@H](O)C[C@]3(C)C(=CC[C@@H]4[C@@]5(C)CC[C@H](OC6OC(C(=O)O)C(O)C(O)C6O)C(C)(C)[C@@H]5CC[C@]43C)[C@@H]2C1 (stereo partly specified) | > 100 µM (inactive) | > 100 µM (inactive) | > 100 µM (inactive) | 64.3 µM (inactive) | 46.1 µM (inactive) | 36.9 µM (inactive) | > 100 µM (inactive) | > 100 µM (inactive) | 88.5 µM (inactive) | > 100 µM (inactive) | 40.4 µM (inactive) | 21.3 µM (inactive) | > 100 µM (inactive) | > 100 µM (inactive) | 22.3 µM (inactive) | 26.1 µM (inactive) | 17.4 µM (inactive) | > 100 µM (inactive) | 56.2 µM (inactive)
COC(=O)[C@H]1[C@@H](O)[C@@]2(O)c3c(OC)cc(OC)cc3O[C@@]2(c2ccc3c(c2)OCO3)[C@@H]1c1ccccc1 | 0.0113 µM (active) | 0.0207 µM (active) | 0.0225 µM (active) | 0.00525 µM (active) | 0.00578 µM (active) | 0.00607 µM (active) | 0.00893 µM (active) | 0.00513 µM (active) | 0.0117 µM (active) | < 0.005 µM (active) | < 0.005 µM (active) | < 0.005 µM (active) | < 0.005 µM (active) | 0.00516 µM (active) | 0.0149 µM (active) | 0.0647 µM (active) | 0.00604 µM (active) | < 0.005 µM (active) | < 0.005 µM (active)
N#C[BH2-][n+]1ccc(C(=O)NNCc2ccccc2)cc1 | > 100 µM (inactive) | > 100 µM (inactive) | > 100 µM (inactive) | > 100 µM (inactive) | > 100 µM (inactive) | > 100 µM (inactive) | > 100 µM (inactive) | > 100 µM (inactive) | > 100 µM (inactive) | > 100 µM (inactive) | > 100 µM (inactive) | > 100 µM (inactive) | > 100 µM (inactive) | > 100 µM (inactive) | > 100 µM (inactive) | > 100 µM (inactive) | > 100 µM (inactive) | > 100 µM (inactive) | > 100 µM (inactive)

From ChEMBL document CHEMBL1201862, “PubChem BioAssay data set” (2004)
